In PubChem BioAssay (NCI):
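Dose response: 5 concentrations. Exposure: 48 h. Format: 96-well plates. Endpoint: linear interpolation; highest concentration if not reached. GI50 is the concentration that inhibits growth by half. Definition used: TGI = concentration required for complete inhibition of growth.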

Key:
Assay in all cases: NCI-60 cell line screen, 48 h
SF-268 CNS = test system: SF-268 CNS
RPMI-8226 leukemia = test system: RPMI-8226 leukemia
NCI-H460 lung = test system: NCI-H460 lung
OVCAR-8 ovarian = test system: OVCAR-8 ovarian
SW-620 colon = test system: SW-620 colon
OVCAR-3 ovarian = test system: OVCAR-3 ovarian
EKVX NSCLC = test system: EKVX NSCLC
CCRF-CEM leukemia = test system: CCRF-CEM leukemia
K-562 leukemia = test system: K-562 leukemia
SF-295 CNS = test system: SF-295 CNS
HCT-15 colon = test system: HCT-15 colon
BT-549 breast = test system: BT-549 breast
A498 renal = test system: A498 renal
NCI/ADR-RES ovarian = test system: NCI/ADR-RES ovarian
SF-539 CNS = test system: SF-539 CNS
MDA-MB-435 = test system: MDA-MB-435
HOP-62 NSCLC = test system: HOP-62 NSCLC
DU-145 prostate = test system: DU-145 prostate
NCI-H226 lung = test system: NCI-H226 lung
SNB-75 CNS = test system: SNB-75 CNS
HOP-92 NSCLC = test system: HOP-92 NSCLC
786-0 renal = test system: 786-0 renal
LOX IMVI melanoma = test system: LOX IMVI melanoma
HCT-116 colon = test system: HCT-116 colon
SK-MEL-2 melanoma = test system: SK-MEL-2 melanoma
KM12 colon = test system: KM12 colon
PC-3 prostate = test system: PC-3 prostate
T-47D breast = test system: T-47D breast
HCC-2998 colon = test system: HCC-2998 colon
UACC-62 melanoma = test system: UACC-62 melanoma
CAKI-1 renal = test system: CAKI-1 renal
MALME-3M melanoma = test system: MALME-3M melanoma
HT29 colon = test system: HT29 colon
M14 melanoma = test system: M14 melanoma
UO-31 renal = test system: UO-31 renal
SN12C renal = test system: SN12C renal
SK-MEL-5 melanoma = test system: SK-MEL-5 melanoma
TK-10 renal = test system: TK-10 renal
OVCAR-4 ovarian = test system: OVCAR-4 ovarian
MOLT-4 leukemia = test system: MOLT-4 leukemia
ACHN renal = test system: ACHN renal
UACC-257 melanoma = test system: UACC-257 melanoma
RXF 393 renal = test system: RXF 393 renal
NCI-H522 lung = test system: NCI-H522 lung
IGROV1 ovarian = test system: IGROV1 ovarian
NCI-H23 lung = test system: NCI-H23 lung
HS 578T breast = test system: HS 578T breast
U251 CNS = test system: U251 CNS
SNB-19 CNS = test system: SNB-19 CNS
OVCAR-5 ovarian = test system: OVCAR-5 ovarian
SR leukemia = test system: SR leukemia
COLO 205 colon = test system: COLO 205 colon
MDA-MB-231 breast = test system: MDA-MB-231 breast
A549 NSCLC = test system: A549 NSCLC
SK-OV-3 ovarian = test system: SK-OV-3 ovarian
MCF7 breast = test system: MCF7 breast
SK-MEL-28 melanoma = test system: SK-MEL-28 melanoma

`C=C1CO[C@@H]2C[C@@H]1CCC1(C)OC1CC/C(C)=C/CC[C@@]2(C)O` (some centres undefined) gave a GI50 (SF-268 CNS) of 48.6 µM, a TGI (SF-268 CNS) of over 100 µM and a GI50 (RPMI-8226 leukemia) of 16.2 µM. For the same compound, the TGI (RPMI-8226 leukemia) was 44.5 µM, the GI50 (NCI-H460 lung) was 13.9 µM and the TGI (NCI-H460 lung) was 30.7 µM. For the same compound, the GI50 (OVCAR-8 ovarian) was 39.8 µM, the TGI (OVCAR-8 ovarian) was over 100 µM and the GI50 (SW-620 colon) was 15.8 µM. For the same compound, the TGI (SW-620 colon) was 38.4 µM, the GI50 (OVCAR-3 ovarian) was 16.9 µM and the TGI (OVCAR-3 ovarian) was 33 µM. The GI50 (EKVX NSCLC) was 18.7 µM, the TGI (EKVX NSCLC) was 43.9 µM and the GI50 (CCRF-CEM leukemia) was 15.1 µM. The TGI (CCRF-CEM leukemia) was 38.1 µM, the GI50 (K-562 leukemia) was 302 nM and the TGI (K-562 leukemia) was 7.02 µM. It also gave a GI50 (SF-295 CNS) of 18.4 µM, a TGI (SF-295 CNS) of 44.7 µM and a GI50 (HCT-15 colon) of 35.8 µM. The TGI (HCT-15 colon) was over 87 µM, the GI50 (BT-549 breast) was 26.4 µM and the TGI (BT-549 breast) was 61.5 µM. It also gave a GI50 (A498 renal) of over 79.1 µM, a TGI (A498 renal) of over 100 µM and a GI50 (NCI/ADR-RES ovarian) of 32.3 µM. It also gave a TGI (NCI/ADR-RES ovarian) of over 67.4 µM, a GI50 (SF-539 CNS) of 16.1 µM and a TGI (SF-539 CNS) of 31.3 µM. The GI50 (MDA-MB-435) was 18.5 µM, the TGI (MDA-MB-435) was 42.2 µM and the GI50 (HOP-62 NSCLC) was over 58.2 µM. The TGI (HOP-62 NSCLC) was over 100 µM, the GI50 (DU-145 prostate) was 16.1 µM and the TGI (DU-145 prostate) was 31.2 µM. It also gave a GI50 (NCI-H226 lung) of over 100 µM, a TGI (NCI-H226 lung) of over 100 µM and a GI50 (SNB-75 CNS) of 21.7 µM. It also gave a TGI (SNB-75 CNS) of 97.4 µM, a GI50 (HOP-92 NSCLC) of 36.4 µM and a TGI (HOP-92 NSCLC) of over 100 µM. It also gave a GI50 (786-0 renal) of over 20.3 µM, a TGI (786-0 renal) of over 53.5 µM and a GI50 (LOX IMVI melanoma) of 7.55 µM. For the same compound, the TGI (LOX IMVI melanoma) was 21.4 µM, the GI50 (HCT-116 colon) was 15.7 µM and the TGI (HCT-116 colon) was 31.2 µM. It also gave a GI50 (SK-MEL-2 melanoma) of 43.2 µM, a TGI (SK-MEL-2 melanoma) of over 84.6 µM and a GI50 (KM12 colon) of 17.7 µM. The TGI (KM12 colon) was 42 µM, the GI50 (PC-3 prostate) was 18.5 µM and the TGI (PC-3 prostate) was 36.9 µM. The GI50 (T-47D breast) was 26.7 µM, the TGI (T-47D breast) was over 69.2 µM and the GI50 (HCC-2998 colon) was 43.1 µM. For the same compound, the TGI (HCC-2998 colon) was over 84 µM, the GI50 (UACC-62 melanoma) was 28.2 µM and the TGI (UACC-62 melanoma) was over 71.2 µM. For the same compound, the GI50 (CAKI-1 renal) was 20 µM, the TGI (CAKI-1 renal) was 44 µM and the GI50 (MALME-3M melanoma) was 48.8 µM. For the same compound, the TGI (MALME-3M melanoma) was over 100 µM, the GI50 (HT29 colon) was 24.5 µM and the TGI (HT29 colon) was over 71 µM. It also gave a GI50 (M14 melanoma) of 44.1 µM, a TGI (M14 melanoma) of over 100 µM and a GI50 (UO-31 renal) of 15.1 µM. For the same compound, the TGI (UO-31 renal) was 29.5 µM, the GI50 (SN12C renal) was 25.6 µM and the TGI (SN12C renal) was 67.8 µM. For the same compound, the GI50 (SK-MEL-5 melanoma) was 15.4 µM, the TGI (SK-MEL-5 melanoma) was 29.4 µM and the GI50 (TK-10 renal) was over 100 µM. For the same compound, the TGI (TK-10 renal) was over 100 µM, the GI50 (OVCAR-4 ovarian) was 20.9 µM and the TGI (OVCAR-4 ovarian) was 59.6 µM. For the same compound, the GI50 (MOLT-4 leukemia) was 17.1 µM, the TGI (MOLT-4 leukemia) was 39.1 µM and the GI50 (ACHN renal) was 16.7 µM. It also gave a TGI (ACHN renal) of 31.4 µM, a GI50 (UACC-257 melanoma) of 44.7 µM and a TGI (UACC-257 melanoma) of over 100 µM. For the same compound, the GI50 (RXF 393 renal) was 23.6 µM, the TGI (RXF 393 renal) was 64.1 µM and the GI50 (NCI-H522 lung) was 30.5 µM. For the same compound, the TGI (NCI-H522 lung) was over 76.9 µM, the GI50 (IGROV1 ovarian) was 16.3 µM and the TGI (IGROV1 ovarian) was 32 µM. The GI50 (NCI-H23 lung) was 27.8 µM, the TGI (NCI-H23 lung) was over 73 µM and the GI50 (HS 578T breast) was 27.1 µM. For the same compound, the TGI (HS 578T breast) was over 79.8 µM, the GI50 (U251 CNS) was 37.6 µM and the TGI (U251 CNS) was over 74.2 µM. It also gave a GI50 (SNB-19 CNS) of over 85.9 µM, a TGI (SNB-19 CNS) of over 100 µM and a GI50 (OVCAR-5 ovarian) of over 100 µM. The TGI (OVCAR-5 ovarian) was over 100 µM, the GI50 (SR leukemia) was 1290 nM and the TGI (SR leukemia) was 2720 nM. The GI50 (COLO 205 colon) was 34.4 µM, the TGI (COLO 205 colon) was over 87.2 µM and the GI50 (MDA-MB-231 breast) was 14.9 µM. The TGI (MDA-MB-231 breast) was 36.1 µM, the GI50 (A549 NSCLC) was 17 µM and the TGI (A549 NSCLC) was 34.9 µM. For the same compound, the GI50 (SK-OV-3 ovarian) was over 100 µM, the TGI (SK-OV-3 ovarian) was over 100 µM and the GI50 (MCF7 breast) was 24.7 µM. For the same compound, the TGI (MCF7 breast) was over 60.6 µM, the GI50 (SK-MEL-28 melanoma) was over 89.6 µM and the TGI (SK-MEL-28 melanoma) was over 100 µM.
